Data reported in patent US9856508B2, “Chemiluminescent compositions, methods, assays and kits for oxidative enzymes” (LIFE TECHNOLOGIES CORPORATION, priority 2010, dated 2018).
Each block holds one compound with its values, some of them ahead of it.

What was measured:
2C19 and 2C18 isozymes = test: Isozyme specificity of 1,2-dioxetane substrates, rhCYP microsomes, 2-step endpoint assay; assay type: biochemical, human; conditions: dioxetane as enzyme substrate
Method: (§1) Assays were performed using the same conditions (25° C., 5 nM rhCyp, 10 μM substrate, 25 min endpoint assay, with isozyme-specific buffers, Luminoscan plate reader) but on different days.
Cytochrome P450 assays have been developed to determine the isozyme specificity of novel 1,2-dioxetane chemiluminescent CYP450 substrates. In these assays, a 1,2-dioxetane substrate that has been determined to be a good substrate for a specific CYP450 isozyme is screened against individual recombinant (human or other) CYP450 isozymes. The protocol follows the 2-Step Endpoint assay format described above (Example 2, Format 1). The assay can be performed using either assay conditions that mimic an inhibition assay (Example 1) using substrate concentrations near the known or predicted Km of the substrate with its known isozyme, or at concentrations designed for more sensitive enzyme detection which is generally above the Km. Assays can be performed in several different ways depending on the desired information. If one is seeking to find out if the dioxetane is a substrate for different CYP450 isozymes at the specific isozyme's preferred assay conditions, the assays should be performed using the buffer and assay conditions preferred by each specific isozyme (Format 1). If one wants to find out if the dioxetane substrate is selective for a given CYP450 isozyme at that isozyme's preferred assay conditions, the assay should be performed using only the assay conditions of the matched isozyme (Format 2). Assays use recombinant human (rh) CYP450 isozymes (final [5 or 10 nM]), NADPH Regeneration System (final [1×]) and Potassium Phosphate Buffer prepared in a 2× Master Mix. 50 μL of the Master Mix is added to the wells of a 96-well plate. 40 μL of water is added the rows of the plate containing the Master Mix. The reaction is started by addition of 10 μL of a 10× NADP+ (nicotinamide adenine dinucleotide phosphate) and 1,2-Dioxetane Substrate (final [1 to 10 μM]) mix to assay wells. The assays are incubated for either 25 min (Format 1) or at the specific assay time (see Example 48, Format 2). […]

CYP2C8 = molecular target: T1, CYP2C8 (Homo sapiens, UniProt P10632); test: as above; assay type: biochemical; conditions: dioxetane as enzyme substrate
T1 construct: host or cells: recombinant human CYP microsomes
T1 sequence (P10632 1-490): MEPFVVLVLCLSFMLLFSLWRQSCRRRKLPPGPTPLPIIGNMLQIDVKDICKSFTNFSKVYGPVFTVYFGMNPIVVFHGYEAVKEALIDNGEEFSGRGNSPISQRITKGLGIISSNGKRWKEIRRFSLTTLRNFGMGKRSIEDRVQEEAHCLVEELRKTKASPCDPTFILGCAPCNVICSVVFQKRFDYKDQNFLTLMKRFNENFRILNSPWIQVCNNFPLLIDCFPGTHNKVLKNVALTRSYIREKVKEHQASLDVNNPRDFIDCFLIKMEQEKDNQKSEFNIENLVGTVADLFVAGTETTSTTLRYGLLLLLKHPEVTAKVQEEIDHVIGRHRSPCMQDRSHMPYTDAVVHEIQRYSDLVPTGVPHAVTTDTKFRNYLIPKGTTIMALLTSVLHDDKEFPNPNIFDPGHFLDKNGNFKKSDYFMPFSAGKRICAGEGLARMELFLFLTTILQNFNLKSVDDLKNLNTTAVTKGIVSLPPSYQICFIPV
Method: as §1
(§2) Cytochrome P450 assays have been developed to determine the isozyme specificity of novel 1,2-dioxetane chemiluminescent CYP450 substrates. In these assays, a 1,2-dioxetane substrate that has been determined to be a good substrate for a specific CYP450 isozyme is screened against individual recombinant (human or other) CYP450 isozymes. The protocol follows the 2-Step Endpoint assay format described above (Example 2, Format 1). The assay can be performed using either assay conditions that mimic an inhibition assay (Example 1) using substrate concentrations near the known or predicted Km of the substrate with its known isozyme, or at concentrations designed for more sensitive enzyme detection which is generally above the Km. Assays can be performed in several different ways depending on the desired information. If one is seeking to find out if the dioxetane is a substrate for different CYP450 isozymes at the specific isozyme's preferred assay conditions, the assays should be performed using the buffer and assay conditions preferred by each specific isozyme (Format 1). If one wants to find out if the dioxetane substrate is selective for a given CYP450 isozyme at that isozyme's preferred assay conditions, the assay should be performed using only the assay conditions of the matched isozyme (Format 2). Assays use recombinant human (rh) CYP450 isozymes (final [5 or 10 nM]), NADPH Regeneration System (final [1×]) and Potassium Phosphate Buffer prepared in a 2× Master Mix. 50 μL of the Master Mix is added to the wells of a 96-well plate. 40 μL of water is added the rows of the plate containing the Master Mix. The reaction is started by addition of 10 μL of a 10× NADP+ (nicotinamide adenine dinucleotide phosphate) and 1,2-Dioxetane Substrate (final [1 to 10 μM]) mix to assay wells. The assays are incubated for either 25 min (Format 1) or at the specific assay time (see Example 48, Format 2).
(§3) • (See FIGS. 3A, 4A, and 5A.) Materials: • rhCytochrome P450 Isozymes: • CYP3A4 (BD/Gentest, Cat #456202) (or other vendor) • CYP2C19 (BD/Gentest, Cat #456259) (or other vendor) • CYP2C9 (BD/Gentest, Cat #456258) (or other vendor) • CYP2D6 (BD/Gentest, Cat #456217) (or other vendor) • CYP1A2 (BD/Gentest, Cat #456203) (or other vendor) • Or Other CYP450 recombinant isozymes • 200 mM Potassium Phosphate Buffer, pH 7.4 • 100 mM Potassium Phosphate Buffer, pH 7.4 • 100× NADP+ • (10 mM NADP+ in 100 mM Potassium phosphate buffer, pH 7.4) • 100× Regeneration System • (333 mM Glucose-6-phosphate, 30 Units/mL Glucose-6-phosphate dehydrogenase in 100 mM Potassium Phosphate Buffer, pH 7.4) • 1,2-Dioxetane Substrates (in 100% Acetonitrile, water, or acetonitrile/water mixture) • 96 well white microplate • Accelerator II Protocol Overview: (See, FIG. 10). Assay Set-Up:
(§4) Contains: • NADP+: 100× stock is 10 mM NADP+ in 100 mM Potassium Phosphate Buffer, pH 7.4 • 100 μM Known 1,2-Dioxetane Substrate Assay Procedure: • 1. Thaw all reagents on ice, except substrates: warm-up to RT under aluminum foil (light sensitive) • 2. Prepare 2× Master Mixes in 2× reaction buffer (keep on ice).
(§5) • 3. Add 50 μL of the specific 2× Master Mix to the desired wells • 4. Add 40 μL of sterile water (H2O) to each well of the plate • 5. Cover plate with plate sealer and let the assay wells equilibrate to 25° C. or room temperature for a few minutes while you prepare the 10×NADP+/Substrate Mixture. • 6. Prepare 10× NADP+/Substrate Mixture immediately before use (light sensitive!)
(§6) • 100× NADP+: 10× (1× final) • H2O: to final volume. • Add substrate by trituration and vortex to allow for maximum substrate solubility in the aqueous mixture. • *The final organic solvent concentration in the assay should be less than 0.1% and preferably much less. • 7. […]

CYP3A family isozymes [1] = test: as above; assay type: biochemical, human; conditions: dioxetane as enzyme substrate
Method: as §1, §2, §3, §4, §5, §6

CYP2C19 [2] = molecular target: T2, CYP2C19 (Homo sapiens, UniProt P33261); test: as above; assay type: biochemical; conditions: for specificity for the CYP2C19 isozyme: FIG. 4A/5A, rhCYP microsomes, 25° C., 25 min, 10 μM substrate, 5 nM rhCYP450, isozyme-preferred potassium phosphate buffer, pH 7.4; for activity from CYP2C19 under CYP2C19 assay conditions: dioxetane as enzyme substrate
T2 construct: purchased BD/Gentest (or other vendor) 456259; host or cells: recombinant human CYP microsomes
Method: as §1, §2, §3, §4, §5, §6

CYP3A family isozymes [3] = molecular target: T3, CYP3A family isozymes (Homo sapiens, UniProt P08684); test: as above; assay type: biochemical; conditions: FIG. 4A; rhCYP microsomes, 25° C., 25 min, 10 μM substrate, 5 nM rhCYP450, isozyme-preferred potassium phosphate buffer, pH 7.4
T3 construct: purchased BD/Gentest (CYP3A4 only; or other vendor) 456202 (CYP3A4); host or cells: recombinant human CYP microsomes
Method: as §1, §2, §3, §4, §5, §6

CYP2C19 [4] = test: Isozyme specificity of AMPPD-Bn in pooled human liver microsomes (HLMs); assay type: biochemical; conditions: FIG. 4B, 25 min, 25° C., 20 μM AMPPD-Bn, 100 mM potassium phosphate buffer, pH 7.4
Method: FIG. 4A and FIG. 4B compare CYP450 isozyme specificity of 1,2-dioxetane substrate AMPPD-Bn in recombinant human microsomes (rhCYPs) and human liver microsomes. FIG. 4A is a graphic representation of isozyme specificity of AMPPD-Bn in rhCYP microsomes. Assays were performed at 25° C. for 25 min using 10 μM AMPPD-Bn, 5 nM rhCYP450 and isozyme-preferred potassium phosphate buffer, pH 7.4. […] FIG. 4B is a graphic representation of isozyme specificity of AMPPD-Bn in pooled human liver microsomes (HLMs). Assays were performed for 25 min at 25° C. using 20 μM AMPPD-Bn and 100 mM potassium phosphate buffer, pH 7.4. Positive (3A4) and negative (2C19, 2D6 and microsome only) controls were performed using 5 nM rhCYP450 microsomes. Pooled HLMs were assayed at 0.5, 0.25, 0.125, or 0.0625 mg/ml. Assays were performed either with or without 2 μM ketoconazole to indicate CYP3A family specificity. […] All assays were performed using the 2-step assay method (Example 48, Format A).
The protocol follows the 2-Step endpoint assay format described in Example 48 (Format A). […] The assays are incubated for either 10 to 25 min before addition of Accelerator and reading of luminescent signal on a luminometer. For relative quantification, samples can be compared to a standard curve of known enzyme concentration, bearing in mind that recombinant enzyme can not fully compare to native enzyme. […]

other CYP isozyme = test: Isozyme specificity of 1,2-dioxetane substrates, rhCYP microsomes, 2-step endpoint assay; assay type: biochemical, human; conditions: FIG. 5A, 25° C., 25 min, 10 μM BZT-Me, 5 nM rhCYP450
Method: FIG. 5A and FIG. 5B compare CYP450 isozyme specificity of 1,2-dioxetane substrate BZT-Me in recombinant human microsomes (rhCYPs) and human liver microsomes. FIG. 5A is a graphic representation of isozyme specificity of BZT-Me in rhCYP microsomes. Assays were performed ate 25° C. for 25 min using 10 μM BZT-Me, 5 nM rhCYP450, and isozyme-preferred potassium phosphate buffer, pH 7.4. […] FIG. 5B is a graphic representation of isozyme specificity of BZT-Me in pooled human liver microsomes (HLMs). Assays were performed for 25 min at 25° C. using 20 μM BZT-Me and 50 mM potassium phosphate buffer, pH 7.4. Positive (2C19) and negative (3A4, 2D6, and microsome only) controls were performed using 5 nM rhCYP450 microsomes. Pooled HLMs or low 2C19 HLMs were assayed at 0.5, 0.25, 0.125, or 0.0625 mg/ml. Assays were performed with or without 2 μM ketoconazole to indicate CYP3A family specificity or 0.5 μM miconozole. All assays were performed using the 2-step assay method (Example 48, Format A).
Cytochrome P450 assays have been developed to determine the isozyme specificity of novel 1,2-dioxetane chemiluminescent CYP450 substrates. In these assays, a 1,2-dioxetane substrate that has been determined to be a good substrate for a specific CYP450 isozyme is screened against individual recombinant (human or other) CYP450 isozymes. […]

T2 sequence (P33261 whole entry): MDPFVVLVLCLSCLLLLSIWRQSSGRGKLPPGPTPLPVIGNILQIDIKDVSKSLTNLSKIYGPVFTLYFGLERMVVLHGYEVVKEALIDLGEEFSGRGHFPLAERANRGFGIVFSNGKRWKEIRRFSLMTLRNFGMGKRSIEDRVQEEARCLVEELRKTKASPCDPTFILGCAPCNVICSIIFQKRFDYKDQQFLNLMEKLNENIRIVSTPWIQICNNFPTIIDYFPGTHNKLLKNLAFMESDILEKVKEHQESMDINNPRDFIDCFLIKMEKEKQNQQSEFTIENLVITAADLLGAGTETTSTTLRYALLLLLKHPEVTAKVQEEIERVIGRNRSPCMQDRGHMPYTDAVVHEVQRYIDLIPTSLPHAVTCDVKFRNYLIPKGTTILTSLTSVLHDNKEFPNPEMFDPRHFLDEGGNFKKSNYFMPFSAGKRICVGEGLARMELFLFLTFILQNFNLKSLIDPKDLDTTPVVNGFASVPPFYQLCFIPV
T3 sequence (P08684 whole entry): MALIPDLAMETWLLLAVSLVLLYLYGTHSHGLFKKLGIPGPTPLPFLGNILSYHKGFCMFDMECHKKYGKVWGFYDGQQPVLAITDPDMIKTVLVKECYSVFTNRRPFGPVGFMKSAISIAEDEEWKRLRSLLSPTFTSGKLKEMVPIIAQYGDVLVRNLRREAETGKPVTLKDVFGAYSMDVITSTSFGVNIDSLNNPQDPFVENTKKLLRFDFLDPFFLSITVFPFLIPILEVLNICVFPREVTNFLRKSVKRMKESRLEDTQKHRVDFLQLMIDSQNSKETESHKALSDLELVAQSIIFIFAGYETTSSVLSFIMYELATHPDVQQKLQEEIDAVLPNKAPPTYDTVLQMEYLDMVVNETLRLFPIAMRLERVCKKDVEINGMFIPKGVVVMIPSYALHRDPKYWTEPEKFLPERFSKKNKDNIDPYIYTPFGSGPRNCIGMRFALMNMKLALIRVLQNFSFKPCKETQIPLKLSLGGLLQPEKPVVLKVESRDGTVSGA

Compound: COc1cc(C2(OC)OOC23C2CC4CC3CC(Cl)(C4)C2)ccc1Cl (stereo not drawn) [CDP-Star-Me]
specificity for 2C19 and 2C18 isozymes (2C19 and 2C18 isozymes): strong specificity

Compound: CCOc1cccc(C2(OC)OOC23C2CC4CC3CC(OCCC(C(=O)[O-])C(=O)[O-])(C4)C2)c1.[Na+].[Na+] (stereo not drawn) [bis-CO2Na-Ad-Ph-OEt dxt]
specificity for CYP2C8 (CYP2C8): high specificity

Compound: CCOc1cccc(C2(OC)OOC23C2CC4CC3CC(OCC[N+](C)(CC)CC)(C4)C2)c1 (stereo not drawn) [Q+-Amino-Ad-Ph-OEt, Q^+-Amino-Ad-Ph-OEt dxt]
specificity for the CYP3A family isozymes (CYP3A family isozymes [1]): strong specificity

Compound: CCOc1cc(C2(OC)OOC23C2CC4CC3CC(Cl)(C4)C2)ccc1Cl (stereo not drawn) [CDP-Star-Et, CDP-Star-ET]
specificity for 2C19 and 2C18 isozymes (2C19 and 2C18 isozymes): strong specificity

More lines, now with the values ahead:

specificity for 2C19 and 2C18 isozymes (2C19 and 2C18 isozymes): strong specificity
Compound: COc1ccc2sc(C3(OC)OOC34C3CC5CC(C3)CC4C5)cc2c1Cl (stereo not drawn) [Cl-BZT-Me]

specificity for the CYP2C19 isozyme (CYP2C19 [2]): strong specificity | activity from CYP2C19 under CYP2C19 assay conditions (CYP2C19 [2]): significant activity | specificity for CYP3A4 isozyme (CYP3A family isozymes [3]): strong specificity | specificity for the CYP3A family isozymes (CYP3A family isozymes [1]): strong specificity | contribution of CYP2C19 activity to AMPPD-Bn oxidation in HLMs (CYP2C19 [4]): does not significantly contribute
Compound: COC1(c2cccc(OCc3ccccc3)c2)OOC12C1CC3CC(C1)CC2C3 (stereo not drawn) [AMPPD-Bn]

specificity for the CYP2C19 isozyme (CYP2C19 [2]): strong specificity | specificity for 2C19 and 2C18 isozymes (2C19 and 2C18 isozymes): strong specificity | oxidation by other CYP isozyme (other CYP isozyme): also oxidized
Compound: COc1ccc2sc(C3(OC)OOC34C3CC5CC(C3)CC4C5)cc2c1 (stereo not drawn) [BZT-Me]

activity from CYP2C19 under CYP2C19 assay conditions (CYP2C19 [2]): significant activity | specificity for the CYP3A family isozymes (CYP3A family isozymes [1]): strong specificity
Compound: COC1(c2ccc(Cl)c(OCc3ccccc3)c2)OOC12C1CC3CC2CC(Cl)(C3)C1 (stereo not drawn) [CDP-Star-Bn]
